According to publication PMC9663597, “Anti-infective therapy using species-specific activators of Staphylococcus aureus ClpP” (Nature Communications, 2022):
Converted amounts (≈) assume the structure as drawn. Like-named read-outs stand apart in the source and are kept apart here.

T1: Staphylococcus aureus ClpP (Staphylococcus aureus), Q2G036
T1 chain: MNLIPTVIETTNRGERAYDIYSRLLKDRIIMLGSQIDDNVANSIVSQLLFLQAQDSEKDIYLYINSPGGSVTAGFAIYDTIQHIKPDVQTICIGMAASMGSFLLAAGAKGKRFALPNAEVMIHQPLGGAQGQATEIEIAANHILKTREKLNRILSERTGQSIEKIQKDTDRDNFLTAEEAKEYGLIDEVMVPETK


Legend:
SaClpPI91W = target: T2, SaClpPI91W (Staphylococcus aureus, UniProt Q2G036, I91W); test: ITC; also DSF, CETSA, alpha-casein hydrolysis; type: binding
T2 construct: gene clpP

[1] = tested on: T3, Staphylococcus aureus USA300 LAC; test: microbe, parasite or virus in culture; set-up: species or system Staphylococcus aureus strains; Minimum inhibitory concentration, growth inhibition of S. aureus strains in culture; settings: USA300, read-out: MIC
T3 construct: USA300 LAC
Description: (§1) Given our species-specific activators suppress the growth of S. aureus 8325-4, we then tested the antistaphylococcal spectrum of (R)- and (S)-ZG197 against a panel of S. aureus strains, including the Newman strain and multidrug-resistant MRSA strains. The USA300, NRS-1, NRS-70, NRS-100, NRS-108, and NRS-271 MRSA strains were collected from the Network on Antimicrobial Resistance in S. aureus (Supplementary Table 2). […] We also tested the antibacterial effects of our activators on five hospital-acquired, multidrug-resistant MRSA isolates in China, including XJ009, XJ036, XJ049, XJ051, and XJ052 (Supplementary Table 2). […] We next performed a minimum inhibitory concentration (MIC) assay in [compound left out] culture to determine the antibacterial effects of our activators on the S. aureus 8325-4 strain. […] To dissect whether our activators’ antistaphylococcal activity depends on ClpP in S. aureus, we determined the inhibitory effects of our activators on the ΔclpP mutant and the complemented clpP or clpPI91W mutant strains, respectively (Fig. 5a). The selective (R)- and (S)-ZG197 activators or the global activators ICG-001 and ONC212 minimally suppress the growth of ΔclpP mutant strain, and all the MICs are observed to be over 256 μg/mL. The antibacterial phenotype can be rescued in the complemented clpP strain in the presence of ClpP activators.

[2] = tested on: T4, Staphylococcus aureus NRS271; test: microbe, parasite or virus in culture; set-up: species or system Staphylococcus aureus strains; Minimum inhibitory concentration, growth inhibition of S. aureus strains in culture; settings: NRS271, read-out: MIC
T4 construct: NRS271
Description: as §1

[3] = tested on: T5, Staphylococcus aureus NRS70; test: microbe, parasite or virus in culture; set-up: species or system Staphylococcus aureus strains; Minimum inhibitory concentration, growth inhibition of S. aureus strains in culture; settings: NRS70, read-out: MIC
T5 construct: NRS70
Description: as §1

[4] = tested on: T6, Staphylococcus aureus XJ049; test: microbe, parasite or virus in culture; set-up: species or system Staphylococcus aureus strains; Minimum inhibitory concentration, growth inhibition of S. aureus strains in culture; settings: XJ049, read-out: MIC
T6 construct: XJ049
Description: as §1

[5] = tested on: T7, Staphylococcus aureus NRS108; test: microbe, parasite or virus in culture; set-up: species or system Staphylococcus aureus strains; Minimum inhibitory concentration, growth inhibition of S. aureus strains in culture; settings: NRS108, read-out: MIC
T7 construct: NRS108
Description: as §1

[6] = tested on: T8, Staphylococcus aureus XJ009; test: microbe, parasite or virus in culture; set-up: species or system Staphylococcus aureus strains; Minimum inhibitory concentration, growth inhibition of S. aureus strains in culture; settings: XJ009, read-out: MIC
T8 construct: XJ009
Description: as §1

[7] = tested on: T9, Staphylococcus aureus Newman; test: microbe, parasite or virus in culture; set-up: species or system Staphylococcus aureus strains; Minimum inhibitory concentration, growth inhibition of S. aureus strains in culture; settings: NEWMAN, read-out: MIC
T9 construct: Newman
Description: as §1

[8] = tested on: T10, Staphylococcus aureus NRS1; test: microbe, parasite or virus in culture; set-up: species or system Staphylococcus aureus strains; Minimum inhibitory concentration, growth inhibition of S. aureus strains in culture; settings: NRS1, read-out: MIC
T10 construct: NRS1
Description: as §1

[9] = tested on: T11, Staphylococcus aureus XJ052; test: microbe, parasite or virus in culture; set-up: species or system Staphylococcus aureus strains; Minimum inhibitory concentration, growth inhibition of S. aureus strains in culture; settings: XJ052, read-out: MIC
T11 construct: XJ052
Description: as §1

[10] = tested on: T12, Staphylococcus aureus NRS100; test: microbe, parasite or virus in culture; set-up: species or system Staphylococcus aureus strains; Minimum inhibitory concentration, growth inhibition of S. aureus strains in culture; settings: NRS100, read-out: MIC
T12 construct: NRS100
Description: as §1

[11] = tested on: T13, Staphylococcus aureus XJ036; test: microbe, parasite or virus in culture; set-up: species or system Staphylococcus aureus strains; Minimum inhibitory concentration, growth inhibition of S. aureus strains in culture; settings: XJ036, read-out: MIC
T13 construct: XJ036
Description: as §1

[12] = tested on: T14, Staphylococcus aureus XJ051; test: microbe, parasite or virus in culture; set-up: species or system Staphylococcus aureus strains; Minimum inhibitory concentration, growth inhibition of S. aureus strains in culture; settings: XJ051, read-out: MIC
T14 construct: XJ051
Description: as §1

[13] = target: T15, SaClpP (Staphylococcus aureus ClpP) (Staphylococcus aureus, UniProt Q2G036); test: ITC; also BLI (Kd […]), DSF, CETSA, X-ray crystal structure, alpha-casein hydrolysis EC50 […]; type: binding
[14] = target: T15, SaClpP (Staphylococcus aureus ClpP); test: ITC; also BLI (Kd […]), DSF, CETSA, X-ray crystal structure; type: binding
[15] = tested on: T6, Staphylococcus aureus XJ049; test: microbe, parasite or virus in culture; set-up: species or system Staphylococcus aureus strains; Minimum inhibitory concentration, growth inhibition of S. aureus strains in culture; settings: XJ049
Description: as §1, with “liquid” for “[compound left out]”

[16] = tested on: T11, Staphylococcus aureus XJ052; test: microbe, parasite or virus in culture; set-up: species or system Staphylococcus aureus strains; Minimum inhibitory concentration, growth inhibition of S. aureus strains in culture; settings: XJ052
Description: as §1, with “liquid” for “[compound left out]”

[17] = tested on: T13, Staphylococcus aureus XJ036; test: microbe, parasite or virus in culture; set-up: species or system Staphylococcus aureus strains; Minimum inhibitory concentration, growth inhibition of S. aureus strains in culture; settings: XJ036
Description: as §1, with “liquid” for “[compound left out]”

[18] = tested on: T14, Staphylococcus aureus XJ051; test: microbe, parasite or virus in culture; set-up: species or system Staphylococcus aureus strains; Minimum inhibitory concentration, growth inhibition of S. aureus strains in culture; settings: XJ051
Description: as §1, with “liquid” for “[compound left out]”

[19] = target: T1, Staphylococcus aureus ClpP …; test: crystal structure; SaClpP (10 mg/mL) with 5-fold ZG180, sitting drop vapor diffusion at 16 °C, 30% 2-methyl-2,4-pentanediol, 0.1 M sodium acetate/HCl pH 8.0, 20 mM calcium chloride; 1.90 Å; settings: remark: other sources report otherwise

Molecule | MIC [1] | MIC [2] | MIC [3] | MIC [4] | MIC [5] | MIC [6] | MIC [7] | MIC [8] | MIC [9] | MIC [10] | MIC [11] | MIC [12] | also measured
CC[C@H](C)[C@H]1C(=O)N([C@H](C)c2cccc3ccccc23)C[C@@H]2N(C(=O)NCCCC(F)(F)F)CCC(=O)N12 [(R)-ZG197] | 0.5 µg/mL (≈ 0.939 µM) | 2 µg/mL (≈ 3.76 µM) | 0.5 µg/mL (≈ 0.939 µM) | 0.5 µg/mL (≈ 0.939 µM) | 0.5 µg/mL (≈ 0.939 µM) | 1 µg/mL (≈ 1.88 µM) | 0.5 µg/mL (≈ 0.939 µM) | 2 µg/mL (≈ 3.76 µM) | 1 µg/mL (≈ 1.88 µM) | 0.5 µg/mL (≈ 0.939 µM) | 1 µg/mL (≈ 1.88 µM) | 0.5 µg/mL (≈ 0.939 µM) | Kd (SaClpPI91W): 930 ± 200 nM; Kd [13]: 2500 ± 200 nM
CC[C@@H](C)[C@H]1C(=O)N([C@@H](C)c2cccc3ccccc23)C[C@@H]2N(C(=O)NCCCC(F)(F)F)CCC(=O)N12 [(S)-ZG197] | 8 µg/mL (≈ 15 µM) | 4 µg/mL (≈ 7.51 µM) | 4 µg/mL (≈ 7.51 µM) | 8 µg/mL (≈ 15 µM) | 4 µg/mL (≈ 7.51 µM) | 8 µg/mL (≈ 15 µM) | 2 µg/mL (≈ 3.76 µM) | 8 µg/mL (≈ 15 µM) | 4 µg/mL (≈ 7.51 µM) | 2 µg/mL (≈ 3.76 µM) | 4 µg/mL (≈ 7.51 µM) | 4 µg/mL (≈ 7.51 µM) | Kd [14]: 5 ± 0.3 µM
CCC[C@@H]1C[C@@H](C(=O)N[C@@H]([C@H]2O[C@H](SC)[C@H](O)[C@@H](O)[C@H]2O)[C@H](C)Cl)N(C)C1 [Clindamycin] | – | – | – | – | – | – | – | – | – | – | 0.13 µg/mL (≈ 0.306 µM) | 0.06 µg/mL (≈ 0.141 µM) | –
CC[C@H]1OC(=O)[C@H](C)[C@@H](O[C@H]2C[C@@](C)(OC)[C@@H](O)[C@H](C)O2)[C@H](C)[C@@H](O[C@@H]2O[C@H](C)C[C@H](N(C)C)[C@H]2O)[C@](C)(O)C[C@@H](C)C(=O)[C@H](C)[C@@H](O)[C@]1(C)O [Erythromycin] | 16 µg/mL (≈ 21.8 µM) | 0.5 µg/mL (≈ 0.681 µM) | – | – | – | – | – | – | – | 0.06 µg/mL (≈ 0.0818 µM) | 0.25 µg/mL (≈ 0.341 µM) | 32 µg/mL (≈ 43.6 µM) | –
CNC(C)[C@@H]1CC[C@@H](N)[C@@H](O[C@H]2[C@H](O)[C@@H](O[C@H]3OC[C@](C)(O)[C@H](NC)[C@H]3O)[C@H](N)C[C@@H]2N)O1 (stereo partly drawn) [Gentamicin] | – | – | – | – | – | – | – | – | – | – | – | – | MIC [15]: 32 µg/mL (≈ 67 µM); MIC [16]: 64 µg/mL (≈ 134 µM); MIC [17]: 0.25 µg/mL (≈ 0.523 µM); MIC [18]: 64 µg/mL (≈ 134 µM)
CCn1cc(C(=O)O)c(=O)c2cc(F)c(N3CCNCC3)cc21 [Norfloxacin] | – | – | – | – | – | 0.5 µg/mL (≈ 1.57 µM) | – | – | – | – | 64 µg/mL (≈ 200 µM) | 64 µg/mL (≈ 200 µM) | –
O=C1C2=C(CCN(Cc3ccccc3)C2)N2CCN=C2N1Cc1ccc(C(F)(F)F)cc1 [ONC212] | 0.5 µg/mL (≈ 1.14 µM) | 0.5 µg/mL (≈ 1.14 µM) | 0.25 µg/mL (≈ 0.568 µM) | 0.25 µg/mL (≈ 0.568 µM) | 0.5 µg/mL (≈ 1.14 µM) | 0.5 µg/mL (≈ 1.14 µM) | 0.25 µg/mL (≈ 0.568 µM) | 1 µg/mL (≈ 2.27 µM) | 0.25 µg/mL (≈ 0.568 µM) | 0.5 µg/mL (≈ 1.14 µM) | 0.25 µg/mL (≈ 0.568 µM) | 1 µg/mL (≈ 2.27 µM) | –
Cc1onc(-c2ccccc2)c1C(=O)N[C@@H]1C(=O)N2[C@@H]1SC(C)(C)[C@@H]2C(=O)O [Oxacillin] | – | – | 2 µg/mL (≈ 4.98 µM) | – | 0.5 µg/mL (≈ 1.25 µM) | 4 µg/mL (≈ 9.96 µM) | 0.1 µg/mL (≈ 0.249 µM) | – | – | 0.1 µg/mL (≈ 0.249 µM) | 1 µg/mL (≈ 2.49 µM) | – | –
CN(C)[C@@H]1C(O)=C(C(N)=O)C(=O)[C@@]2(O)C(O)=C3C(=O)c4c(O)cccc4[C@@](C)(O)[C@H]3C[C@@H]12 [Tetracycline] | 16 µg/mL (≈ 36 µM) | 2.5 µg/mL (≈ 5.63 µM) | 0.06 µg/mL (≈ 0.135 µM) | – | – | – | – | – | – | – | – | – | –
Staphylococcus aureus ClpP, Q2G036 1-195 (enzyme) MNLIPTVIETTNRGERAYDIYSRLLKDRIIMLGSQIDDNVANSIVSQLLFLQAQDSEKDIYLYINSPGGSVTAGFAIYDTIQHIKPDVQTICIGMAASMGSFLLAAGAKGKRFALPNAEVMIHQPLGGAQGQATEIEIAANHILKTREKLNRILSERTGQSIEKIQKDTDRDNFLTAEEAKEYGLIDEVMVPETK | – | – | – | – | – | – | – | – | – | – | – | – | stoichiometry N [19]: 14
